# Patent US20260365663A1, “EMOPAMIL-BINDING PROTEIN INHIBITORS AND USES THEREOF” (BIOGEN MA INC., priority 2022, published 2026)
# Biological target: T1, EBP (Homo sapiens, UniProt Q15125)
# T1 construct: HEK293T cells were utilized as the source of EBP enzyme; endogenous in cells; host or cells: HEK293T
# Assay: EBP Functional Assay (EBP immunoaffinity LC-MS assay)
# Assay type: biochemical
# Settings: not given
# Method: The EBP immunoaffinity (IA) LC-MS assay measures the potency of small molecule inhibitors of EBP by quantifying their concentration-dependent changes in the enzyme's substrate and product using liquid chromatography atmospheric pressure chemical ionization multiple reaction monitoring mass spectrometry (LC-APCI MRM MS). HEK293T cells were utilized as the source of EBP enzyme. The enzyme was incubated with the small molecule inhibitors at variable concentrations for 30 min. Deuterated form of EBP substrate, zymosterol-d5 (Avanti Polar Lipids, Cat #700068P-1 mg), was then added and the plate was incubated at 37 °C for 4 h. Finally, the sterol isomers were extracted and injected to LC-APCI MRM MS. MRM transition used for the quantification for both zymosterol and dihydrolathosterol (substrate and product of EBP enzymatic reaction, respectively) is 372.3-203.2, CE 30 and DP 80 in positive ion mode. Percent conversion of the zymosterol-d5 to dehydrolathosterol-d5 was used to derive IC50 curves. Tasin-1 (1′-[(4-Methoxyphenyl)sulfonyl]-4-methyl-1,4′-bipiperidine, CAS 792927-06-1) was used as the reference small molecule inhibitor.
# Percent conversion versus the compound concentration data were fit to the following 4-parameter logistic model to generate IC50 curves: […]
# T1 sequence (Q15125 whole entry): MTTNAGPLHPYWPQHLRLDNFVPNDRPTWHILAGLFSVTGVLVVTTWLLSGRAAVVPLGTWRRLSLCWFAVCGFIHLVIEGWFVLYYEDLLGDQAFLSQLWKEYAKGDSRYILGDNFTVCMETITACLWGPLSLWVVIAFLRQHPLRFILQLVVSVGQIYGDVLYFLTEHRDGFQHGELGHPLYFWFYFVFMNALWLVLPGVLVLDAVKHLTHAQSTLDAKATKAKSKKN
row,IC50 [nM],Compound
1,500 to 3000,"O=S(=O)(c1ccc(OC(F)F)cc1)N1CC2(CCC(N3CCOCC3)C2)C1 (stereo not drawn) [Example 44, 4-(2-((4-(Difluoromethoxy)phenyl)sulfonyl)-2-azaspiro[3.4]octan-6-yl)morpholine]"
2,500 to 3000,"O=S(=O)(c1ccc(F)cc1F)N1CC2(CCC(N3CCOCC3)C2)C1 (stereo not drawn) [Example 46, 4-(2-((2,4-Difluorophenyl)sulfonyl)-2-azaspiro[3.4]octan-6-yl)morpholine]"
3,100 to 500,"Cc1cc(C)c(S(=O)(=O)N2CC3(CCC(N4CCOCC4)C3)C2)cn1 (stereo not drawn) [Example 47, 4-(2-((4,6-Dimethylpyridin-3-yl)sulfonyl)-2-azaspiro[3.4]octan-6-yl)morpholine]"
4,500 to 3000,"N#Cc1cc(F)cc(S(=O)(=O)N2CC3(CC[C@H](N4CCOCC4)C3)C2)c1 [Example 52, (S)-3-Fluoro-5-((6-morpholino-2-azaspiro[3.4]octan-2-yl)sulfonyl)benzonitrile]"
5,< 100,"CC(C)c1cc(S(=O)(=O)N2CC3(CC(N4CCOCC4)C3)C2)n(C)n1 [Example 19, 4-(2-((3-Isopropyl-1-methyl-1H-pyrazol-5-yl)sulfonyl)-2-azaspiro[3.3]heptan-6-yl)morpholine]"
6,500 to 3000,"N#Cc1cc(F)cc(S(=O)(=O)N2CC3(CC[C@@H](N4CCOCC4)C3)C2)c1 [Example 50, (R)-3-Fluoro-5-((6-morpholino-2-azaspiro[3.4]octan-2-yl)sulfonyl)benzonitrile]"
7,500 to 3000,"Cc1nc(C(C)(F)F)ccc1S(=O)(=O)N1CC2(CC(N3CC4(CCO4)C3)C2)C1 [Example 68, 6-(2-((6-(1,1-difluoroethyl)-2-methylpyridin-3-yl)sulfonyl)-2-azaspiro[3.3]heptan-6-yl)-1-oxa-6-azaspiro[3.3]heptane]"
8,500 to 3000,"Cn1nc(C(F)(F)F)cc1S(=O)(=O)N1CC2(CC(N3CC4(CCO4)C3)C2)C1 [Example 15, 6-(2-((1-Methyl-3-(trifluoromethyl)-1H-pyrazol-5-yl)sulfonyl)-2-azaspiro[3.3]heptan-6-yl)-1-oxa-6-azaspiro[3.3]heptane]"
9,500 to 3000,"Cc1nc(C(F)(F)F)ccc1S(=O)(=O)N1CC2(CC(N3CC4(CCO4)C3)C2)C1 [Example 6, 6-(2-((2-Methyl-6-(trifluoromethyl)pyridin-3-yl)sulfonyl)-2-azaspiro[3.3]heptan-6-yl)-1-oxa-6-azaspiro[3.3]heptane]"
10,100 to 500,"Cc1nn(C)c(S(=O)(=O)N2CC3(CCC(N4CCOCC4)C3)C2)c1Cl (stereo not drawn) [Example 37, 4-(2-((4-Chloro-1,3-dimethyl-1H-pyrazol-5-yl)sulfonyl)-2-azaspiro[3.4]octan-6-yl)morpholine]"
11,500 to 3000,"Cc1nc(C(F)(F)F)ccc1S(=O)(=O)N1CC2(CC(N3CC4(COC4)C3)C2)C1 [Example 4, 6-(2-((2-Methyl-6-(trifluoromethyl)pyridin-3-yl)sulfonyl)-2-azaspiro[3.3]heptan-6-yl)-2-oxa-6-azaspiro[3.3]heptane]"

# Same assay, conditions: HEK293T cells as source of EBP enzyme; zymosterol-d5 substrate; inhibitor 30 min, then 37 °C for 4 h; percent conversion to dehydrolathosterol-d5 by LC-APCI MRM MS; read-out: EBP Functional Assay
row,IC50 [nM],Compound
1,100 to 500,"Cc1cc(C)c(S(=O)(=O)N2CC3(CC(N4CCOCC4)CO3)C2)c(C)c1 (stereo not drawn) [Example 53, 2-(Mesitylsulfonyl)-7-morpholino-5-oxa-2-azaspiro[3.4]octane]"
2,100 to 500,"Cc1nc(C(F)(F)F)ncc1S(=O)(=O)N1CC2(CC(NCC3CCOCC3)C2)C1 [Example 79, 2-((4-methyl-2-(trifluoromethyl)pyrimidin-5-yl)sulfonyl)-N-((tetrahydro-2H-pyran-4-yl)methyl)-2-azaspiro[3.3]heptan-6-amine]"
3,500 to 3000,"Cc1nc(C(C)(F)F)ccc1S(=O)(=O)N1CC2(CC(NC3COC3)C2)C1 [Example 69, 2-((6-(1,1-difluoroethyl)-2-methylpyridin-3-yl)sulfonyl)-N-(oxetan-3-yl)-2-azaspiro[3.3]heptan-6-amine]"
4,100 to 500,"CC1CCN(C2COC3(C2)CN(S(=O)(=O)c2ccc(OC(F)F)cc2)C3)CC1 (stereo not drawn) [Example 54, 2-((4-(Difluoromethoxy)phenyl)sulfonyl)-7-(4-methylpiperidin-1-yl)-5-oxa-2-azaspiro[3.4]octane]"
5,500 to 3000,"COc1ncc(C)cc1S(=O)(=O)N1CC2(CC(NC3CCOCC3)CO2)C1 (stereo not drawn) [Example 21, 2-((2-Methoxy-5-methylpyridin-3-yl)sulfonyl)-N-(tetrahydro-2H-pyran-4-yl)-5-oxa-2-azaspiro[3.4]octan-7-amine]"
6,500 to 3000,"N#Cc1ccc(F)c(S(=O)(=O)N2CC3(CC(NC4CCC(F)(F)CC4)CO3)C2)c1 (stereo not drawn) [Example 26, 3-((7-((4,4-Difluorocyclohexyl)amino)-5-oxa-2-azaspiro[3.4]octan-2-yl)sulfonyl)-4-fluorobenzonitrile]"
7,100 to 500,"COc1ccc(S(=O)(=O)N2CC3(CCC(NC4CCC(F)(F)CC4)C3)C2)c(C)n1 (stereo not drawn) [Example 31, N-(4,4-Difluorocyclohexyl)-2-((6-methoxy-2-methylpyridin-3-yl)sulfonyl)-2-azaspiro[3.4]octan-6-amine]"
8,< 100,"Cc1nc(C(C)(F)F)ccc1S(=O)(=O)N1CC2(CC(NCC3CCOCC3)C2)C1 [Example 71, 2-((6-(1,1-difluoroethyl)-2-methylpyridin-3-yl)sulfonyl)-N-((tetrahydro-2H-pyran-4-yl)methyl)-2-azaspiro[3.3]heptan-6-amine]"
9,100 to 500,"Cc1nc(C(F)(F)F)ncc1S(=O)(=O)N1CC2(CC(N(C)C3COC3)C2)C1 [Example 81, N-methyl-2-((4-methyl-2-(trifluoromethyl)pyrimidin-5-yl)sulfonyl)-N-(oxetan-3-yl)-2-azaspiro[3.3]heptan-6-amine]"
10,100 to 500,"Cc1nc(C(C)(F)F)ccc1S(=O)(=O)N1CC2(CC(NC3CC4(COC4)C3)C2)C1 (stereo not drawn) [Example 70, 2-((6-(1,1-difluoroethyl)-2-methylpyridin-3-yl)sulfonyl)-N-(2-oxaspiro[3.3]heptan-6-yl)-2-azaspiro[3.3]heptan-6-amine]"
11,500 to 3000,"COc1ncc(C)cc1S(=O)(=O)N1CC2(CC(NC3CC(F)(F)C3)CO2)C1 (stereo not drawn) [Example 25, N-(3,3-Difluorocyclobutyl)-2-((2-methoxy-5-methylpyridin-3-yl)sulfonyl)-5-oxa-2-azaspiro[3.4]octan-7-amine]"
12,< 100,"Cn1nc(C(F)(F)F)cc1S(=O)(=O)N1CC2(CC(NCC3(C)COC3)C2)C1 [Example 12, 2-((1-Methyl-3-(trifluoromethyl)-1H-pyrazol-5-yl)sulfonyl)-N-((3-methyloxetan-3-yl)methyl)-2-azaspiro[3.3]heptan-6-amine]"
13,500 to 3000,"Cc1nc(C(F)(F)F)ncc1S(=O)(=O)N1CC2(CC(NC3COC3)C2)C1 [Example 77, 2-((4-methyl-2-(trifluoromethyl)pyrimidin-5-yl)sulfonyl)-N-(oxetan-3-yl)-2-azaspiro[3.3]heptan-6-amine]"
14,500 to 3000,"COCCN(C)C1CCC2(C1)CN(S(=O)(=O)c1cc(C(F)(F)F)nn1C)C2 (stereo not drawn) [Example 33, N-(2-Methoxyethyl)-N-methyl-2-((1-methyl-3-(trifluoromethyl)-1H-pyrazol-5-yl)sulfonyl)-2-azaspiro[3.4]octan-6-amine]"
15,< 100,"COCCN(C)C1CCC2(C1)CN(S(=O)(=O)c1ccc(OC)nc1C)C2 (stereo not drawn) [Example 32, 2-((6-Methoxy-2-methylpyridin-3-yl)sulfonyl)-N-(2-methoxyethyl)-N-methyl-2-azaspiro[3.4]octan-6-amine]"
16,< 100,"Cc1nc(C(C)(F)F)ccc1S(=O)(=O)N1CC2(CC(N3CC4(COC4)C3)C2)C1 [Example 1, 6-(2-((6-(1,1-Difluoroethyl)-2-methylpyridin-3-yl)sulfonyl)-2-azaspiro[3.3]heptan-6-yl)-2-oxa-6-azaspiro[3.3]heptane]"
17,100 to 500,"Cc1nc(C(F)(F)F)ccc1S(=O)(=O)N1CC2(CC(NC3(C4CCOCC4)CC3)C2)C1 [Example 7, 2-((2-Methyl-6-(trifluoromethyl)pyridin-3-yl)sulfonyl)-N-(1-(tetrahydro-2H-pyran-4-yl)cyclopropyl)-2-azaspiro[3.3]heptan-6-amine]"
18,100 to 500,"Cc1nc(C(F)(F)F)ccc1S(=O)(=O)N1CC2(CC(NC3CCOCC3)C2)C1 [Example 3, 2-((2-Methyl-6-(trifluoromethyl)pyridin-3-yl)sulfonyl)-N-(tetrahydro-2H-pyran-4-yl)-2-azaspiro[3.3]heptan-6-amine]"
19,100 to 500,"Cn1nc(C(F)(F)F)cc1S(=O)(=O)N1CC2(CC[C@H](N3CCOCC3)C2)C1 [Example 51, (S)-4-(2-((1-methyl-3-(trifluoromethyl)-1H-pyrazol-5-yl)sulfonyl)-2-azaspiro[3.4]octan-6-yl)morpholine]"
20,500 to 3000,"Cc1nc(C(F)(F)F)ccc1S(=O)(=O)NC1CC2(C1)CN(C1CCOCC1)C2 [Example 18, 2-Methyl-N-(2-(tetrahydro-2H-pyran-4-yl)-2-azaspiro[3.3]heptan-6-yl)-6-(trifluoromethyl)pyridine-3-sulfonamide]"
21,100 to 500,"Cc1nc(C(C)(F)F)ccc1S(=O)(=O)N1CC2(CC(N(C)C3COC3)C2)C1 [Example 73, 2-((6-(1,1-difluoroethyl)-2-methylpyridin-3-yl)sulfonyl)-N-methyl-N-(oxetan-3-yl)-2-azaspiro[3.3]heptan-6-amine]"
22,500 to 3000,"COc1ncc(C)cc1S(=O)(=O)N1CC2(CC(N3CC(OC)C3)CO2)C1 (stereo not drawn) [Example 23, 2-((2-Methoxy-5-methylpyridin-3-yl)sulfonyl)-7-(3-methoxyazetidin-1-yl)-5-oxa-2-azaspiro[3.4]octane]"
